Experimental findings from patent publication US8722689B2, “Synergistic combination of flumetsulam or diclosulam with diiodomethyl-P-tolylsulfone” (Dow Global Technologies LLC, priority 2010, dated 2014) are described below.

A word on the % inhibition: it is how much of the control response was suppressed.

Common to all, as to format: cell-based
Assay [1] concerns Alternaria alternata mixed with Trichoderma viride (AaTv). Put plainly: Fungal efficacy testing, modified ASTM 5590, paint film (Flumetsulam study). To be noted: four weeks; for % inhibition: at the total conc given; for Total conc, ppm: concentration in paint chosen as minimum inhibitory concentration for SI, 30 C. As for the experimental part:
(§1) Sample preparation: A single or blend of biocides was post added into white acrylic latex paint free of biocides to give a maximum total active ingredient/s concentration tested. This paint was then diluted with a biocide free acrylic latex paint to give targeted concentrations for the testing. Depending on the type of biocide blends tested, the total biocides concentrations varies from 200 to 5000 ppm. After biocides addition or dilution, each sample was hand mixed for at least a minute until uniformity is achieved. Each of the paint samples as well as a control sample (containing no biocide) were used to prepare films on black plastic-vinyl chloride/acetate copolymer panels (LENETA, Mahwah, N.J.) using a 3 mil (0.0762 mm) bird bar applicator. The panels were thoroughly dried for at least 2 days avoiding direct exposure to sunlight. Square discs (0.5 inch; 1.27 cm^2) were cut out from each panel and were used as the substrate for fungal and algal efficacy tests. This sample size allowed for an agar border when the sample disc was placed into the well of the test plate. Each sample was tested in duplicate
(§2) Test conditions: The appropriate media (BOLD'S 3N for Chlorophytes, BG-11 for Cyanobacteria, and PDA for fungi) were used to support microbial growth. The test plates were maintained at room temp (25° C.-26° C.), in a cycled light-dark environment, for four weeks for algae. Plates for fungal challenge tests were maintained at 30 C for four weeks. At the end of the incubation period the samples were scored for percent area covered by visible microbial growth.
(§3) ASTM 5590 is a standard accelerated test method for determining resistance of various coatings (including paints) to fungal defacement. To accommodate for high-throughput screening, this method was scaled down from petri plates to 6-well plates. To set up the test, an agar plug was placed at the bottom of each well of the sterile 6-well plate. A single coupon was placed with a pair of sterile forceps at the center of the agar plug (on top) with the painted surface facing upwards. Fungal inoculums were prepared by mixing equal concentrations (1×10^6 cfu/ml) and equal volumes (depending on number of samples to be tested) of like growing organisms. For Flumetsulam+various IT synergy study, three pools of mixed fungi were prepared as the test inoculum. Cladosporium herbarum was mixed with Aureobasidium pullulans; Aspergillus niger was mixed with Penicillium funiculosum and Alternaria alternata was mixed with Trichoderma viride. For Diclosulam+various IT synergy study, all above fungi were mixed as a single pool. Each well was inoculated with 400 μl of organism mixture (1×10^6 cfu/ml) making sure that the whole surface (paint film as well as the agar surrounding it) was evenly covered. The plates were incubated at 30° C. in presence of moisture, for a period of four weeks. The total percent area covered was evaluated and recorded at the end of each week after the 2nd week and recorded in increments of 5%.
(§4) The SI is calculated based on […].

For assay [2], the system named is Aspergillus niger mixed with Penicillium funiculosum (AnPf). Described as above. To be noted: four weeks; for % inhibition: at the total conc given; for Total conc, ppm: concentration in paint chosen as minimum inhibitory concentration for SI, 30 C. How it is done: as §1, §2, §3, §4
Assay [3] deals with Cladosporium herbarum mixed with Aureobasidium pullulans (ApCh). The assay is described as above. To be noted: four weeks; for % inhibition: at the total conc given; for Total conc, ppm: concentration in paint chosen as minimum inhibitory concentration for SI, 30 C. As for the experimental part: as §1, §2, §3, §4
Assay [4] has as its system Chlorella sp., Chlorella kessleri, and Nostoc commune (Cs + Ck + Nc). In words: Algal efficacy testing, modified ASTM 5589, paint film (Flumetsulam study). To be noted: four weeks; for % inhibition: at the total conc given; for Total conc, ppm: concentration in paint chosen as minimum inhibitory concentration for SI, 25-26 C. As for the experimental part: as §1, §2
(§5) ASTM 5589 is a standard accelerated test method for determining resistance of various coatings (including paints) to algal defacement. To accommodate for high-throughput screening, this method was scaled down from petri plates to 6-well plates. A single coupon was placed with a pair of sterile forceps at the center of the agar plug (on top) with the painted surface facing upwards. Algal inoculums were prepared by mixing equal concentrations (1×10^6 cfu/ml) and equal volumes (depending on number of samples to be inoculated) of like growing organisms.
(§6) In Flumetsulam+various IT synergy study, three pool of mixed algae were prepared as the test inoculum, Gloeocapsa sp. and Oscillatoria sp. a mix of cyanobacteria grown on BG-11 media; Chlorella sp., Chlorella kessleri, and Nostoc commune are unicellular chlorphytes that were mixed and grown on Bold media; Trentepohlia aurea, Tretepohlia odorata, and Calotrix parientina are filamentous algae that were mixed and grown on Bold media.
(§7) Each well that contains a tested coupon was inoculated with 400 μl of organism mixture (1×10^6 cfu/ml) making sure that the whole surface (paint film as well as the agar surrounding it) was evenly covered. The plates were incubated at room temp (25° C.-26° C.) with cyclic exposure to light (OTT-Lite model # OTL4012P, 40 Watt, 26KLumen) and dark phases, for a period of four weeks. The total area covered was evaluated at the end of each week according to percent area covered in 5% increments.
as §4

The test system of assay [5] is Trentepohlia aurea, Tretepohlia odorata, and Calotrix parientina (Cp + To + Ta). The assay is described as above. The note with it: four weeks; for % inhibition: at the total conc given; for Total conc, ppm: concentration in paint chosen as minimum inhibitory concentration for SI, 25-26 C. As for the experimental part: as §1, §2, §5, §6, §7, §4
For assay [6], the system named is Gloeocapsa sp. and Oscillatoria sp. (Gs + Os). In words: Algal efficacy testing, modified ASTM 5589, paint film (both studies). The note with it: four weeks; for % inhibition: at the total conc given; for Total conc, ppm: concentration in paint chosen as minimum inhibitory concentration for SI. As for the experimental part: as §1, §2, §5, §6
(§8) In Diclosulam+various IT synergy study, only two pools of mixed algae were prepared; Gloeocapsa sp. and Oscillatoria sp. grown on BG-11 media and Chlorella sp., Chlorella kessleri, Nostoc commune, Trentepohlia aurea, Tretepohlia odorata, and Calotrix parientina grown on Bold media
as §7, §4

In assay [7] the test system is Aa + Tv + An + Pf + Ap + Ch (all fungi mixed as a single pool). In words: Fungal efficacy testing, modified ASTM 5590, paint film (Diclosulam study, single pool). To be noted: four weeks; for Total conc, ppm: Diclosulam:DIMTS study, concentration in paint used for SI, 30 C; for % inhibition: at the total conc given. How it is done: as §1, §2
as §3, with “Each well was inoculated with 400 μl of organism mixture (1×10^6 cfu/ml) making sure that the whole surface (paint film as well as the agar surrounding it) was evenly covered. The plates were incubated at 30° C. in presence of moisture, for a period of four weeks.” left out
as §4

The subject of assay [8] is Cp + To + Ta + Cs + Ck + Nc (algae grown on Bold media). Put plainly: Algal efficacy testing, modified ASTM 5589, paint film (Diclosulam study). To be noted: four weeks; for Total conc, ppm: Diclosulam:DIMTS study, concentration in paint used for SI; for % inhibition: at the total conc given. How it is done: as §1, §2, §5, §8
Each well that contains a tested coupon was inoculated with 400 μl of organism mixture (1×10^6 cfu/ml) making sure that the whole surface (paint film as well as the agar surrounding it) was evenly covered. […] The total area covered was evaluated at the end of each week according to percent area covered in 5% increments.
as §4

For the compound `Cc1ccc(S(=O)(=O)C(I)I)cc1` [DIMTS, diiodomethyl-p-tolylsulfone], the “% inhibition” value in assay [1] is 70%; in assay [2], 100%; in assay [3], 100%; in assay [4], 100%; in assay [5], 100%; in assay [6] (Diclosulam:DIMTS study), 85%. In addition, the “% inhibition” value in assay [6] (Flumetsulam:DIMTS study) was 85%; in assay [7], 0%; in assay [8] it was 100%. The “Total conc, ppm” value in assay [1] amounted to 2500 ppm; in assay [2], 625 ppm; in assay [3], 625 ppm; in assay [4], 1250 ppm; in assay [5], 1250 ppm; in assay [6] (Diclosulam:DIMTS study), 2500 ppm. In addition, the figures for the “Total conc, ppm” value in assay [6] (Flumetsulam:DIMTS study), in assay [7] and in assay [8] were 625 ppm, 2500 ppm and 625 ppm, respectively.

In the case of `CCOc1nc(F)cc2nc(S(=O)(=O)Nc3c(Cl)cccc3Cl)nn12` [Diclosulam, N-(2,6-dichlorophenyl)-5-ethoxy-7-fluoro[1,2,4]triazolo[1,5-c]pyrimidine-2-sulfonamide], the “% inhibition” value came out at 85% in assay [6] (Diclosulam:DIMTS study), 0% in assay [7] and 100% in assay [8]. The results for the “Total conc, ppm” value in assay [6] (Diclosulam:DIMTS study), in assay [7] and in assay [8] were 875 ppm, 3500 ppm and 437.5 ppm, respectively.

`Cc1ccn2nc(S(=O)(=O)Nc3c(F)cccc3F)nc2n1` [Flumetsulam, N-(2,6-difluorophenyl)-5-methyl[1,2,4]triazolo[1,5-a]pyrimidine-2-sulfonamide]: the “% inhibition” value was 70% in assay [1]; 40% in assay [2]; 70% in assay [3]; 0% in assay [4]; 95% in assay [5]; 80% in assay [6] (Flumetsulam:DIMTS study). Moreover, the “Total conc, ppm” value in assay [1] came to 3500 ppm; in assay [2] it was 3500 ppm; in assay [3], 3500 ppm; in assay [4], 3500 ppm; in assay [5], 3500 ppm; in assay [6] (Flumetsulam:DIMTS study), 2625 ppm.
